Results: PubChem BioAssay (NCI)
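How tested: cells in 96-well plates exposed to compound for 48 hours at five concentrations. The concentration for 50% growth inhibition is given as GI50. Definition used: TGI = concentration required for complete inhibition of growth.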

What was measured:
Assay in all cases: NCI tumour cell line growth inhibition, 48 h
HOP-92 NSCLC = system: HOP-92 NSCLC
OVCAR-3 ovarian = system: OVCAR-3 ovarian
MCF7 breast = system: MCF7 breast
A498 renal = system: A498 renal
MDA-MB-231 breast = system: MDA-MB-231 breast
BT-549 breast = system: BT-549 breast
DU-145 prostate = system: DU-145 prostate
UO-31 renal = system: UO-31 renal

SMILES | GI50 (HOP-92 NSCLC) | TGI (HOP-92 NSCLC) | GI50 (OVCAR-3 ovarian) | TGI (OVCAR-3 ovarian) | GI50 (MCF7 breast) | TGI (MCF7 breast) | GI50 (A498 renal) | TGI (A498 renal) | GI50 (MDA-MB-231 breast) | TGI (MDA-MB-231 breast) | GI50 (BT-549 breast) | TGI (BT-549 breast) | GI50 (DU-145 prostate) | TGI (DU-145 prostate) | GI50 (UO-31 renal) | TGI (UO-31 renal)
Cc1ccn2c(-c3csc(Nc4cccc(O)c4)n3)c(C)nc2c1 | 1.75 µM | 22.7 µM | 0.32 µM | 0.914 µM | 0.311 µM | 27.3 µM | 0.926 µM | 32.1 µM | 0.751 µM | 11.6 µM | 0.781 µM | 33.6 µM | 0.787 µM | 25.3 µM | 0.977 µM | 16.6 µM
N#Cc1ccc(N2Cc3cc(Cl)ccc3OC3=C2C(=O)N(Cc2ccc(F)cc2)C3=O)cc1 | 0.58 µM | 1.32 µM | 0.494 µM | 0.96 µM | 0.712 µM | 3.03 µM | 3.26 µM | 15.3 µM | 0.636 µM | 1.51 µM | 0.174 µM | 0.356 µM | 0.662 µM | 1.45 µM | 0.436 µM | 0.868 µM
O=C(N/N=C/c1ccncc1)c1ccc(C(F)(F)F)nc1Nc1cccc(C(F)(F)F)c1 | – | – | 2.65 µM | 7.74 µM | 2.27 µM | 8.52 µM | 2.91 µM | 10 µM | 1.81 µM | 9.43 µM | 0.613 µM | 3.59 µM | 2.59 µM | 6.83 µM | 2.49 µM | 10.2 µM
CC(=O)NC1CCCN(O)C(=O)/C=C(/C)CCOC(=O)C(NC(C)=O)CCCN(O)C(=O)/C=C(/C)CCOC(=O)C(NC(C)=O)CCCN(O)C(=O)/C=C(/C)CCOC1=O.[Fe] (stereo unspecified) | > 100 µM | > 100 µM | > 100 µM | > 100 µM | > 100 µM | > 100 µM | > 100 µM | > 100 µM | > 100 µM | > 100 µM | > 100 µM | > 100 µM | > 100 µM | > 100 µM | > 100 µM | > 100 µM
Nc1cccc2c1CN(C1CCC(=O)NC1=O)C2=O (stereo unspecified) | > 34.2 µM | > 100 µM | > 100 µM | > 100 µM | > 100 µM | > 100 µM | > 100 µM | > 100 µM | > 100 µM | > 100 µM | > 100 µM | > 100 µM | > 100 µM | > 100 µM | > 100 µM | > 100 µM
O=S1CCN(Cc2ccc(-c3ccc4ncnc(Nc5ccc(OCc6ccccc6)c(F)c5)c4c3)o2)CC1 | 3.76 µM | 17.7 µM | 7.93 µM | > 25 µM | 6.89 µM | > 16.5 µM | 3.68 µM | 21.6 µM | 7.07 µM | > 23.7 µM | 7.88 µM | > 22.8 µM | 4.56 µM | > 25 µM | 4.85 µM | > 25 µM
O=NNc1ccc(Sc2ccc3ccccc3c2)cn1 | – | – | – | > 100 µM | – | > 100 µM | – | > 100 µM | – | > 100 µM | – | 77.1 µM | – | 79.7 µM | – | > 100 µM
NC(Cc1ccc(O)cc1)C(=O)N/N=C/c1ccc(N(CCCl)CCCl)cc1 (stereo unspecified) | 21.4 µM | > 100 µM | 14.2 µM | 62 µM | 7.52 µM | > 100 µM | 9.78 µM | 59.5 µM | 5.25 µM | 32.6 µM | 19.3 µM | > 100 µM | 5.19 µM | 34.7 µM | 3.95 µM | 23.6 µM
COC(=O)c1c2c(c(C)[n+]([O-])c1C)C(=O)C=C(NCc1ccc(Br)cc1)C2=O | 1.74 µM | 3.6 µM | 0.252 µM | 0.845 µM | 0.255 µM | 1.07 µM | 0.904 µM | 2.3 µM | 0.3 µM | 3.82 µM | 1.15 µM | 2.53 µM | 0.871 µM | 2.26 µM | 1.08 µM | 2.44 µM
CC(=O)Nc1cc(C(c2ccccc2)c2ccccc2)cc(C(c2ccccc2)c2ccccc2)c1C | 4.68 µM | > 100 µM | 7.33 µM | > 100 µM | 4.77 µM | > 100 µM | 6.24 µM | > 100 µM | 4.21 µM | > 100 µM | 8.2 µM | > 100 µM | > 100 µM | > 100 µM | 3.54 µM | > 100 µM
Cc1ccc2c(n1)C(=O)C(Cl)=C(Nc1ccc(N3CCN(C)CC3)cc1)C2=O | 1.68 µM | 3.21 µM | 1.63 µM | 3.13 µM | 2.04 µM | 5.17 µM | 12.8 µM | 25.6 µM | 1.73 µM | 3.19 µM | 1.61 µM | 2.97 µM | 1.76 µM | 3.25 µM | 1.63 µM | 2.98 µM
Cc1cc(C(=O)N2CCN(C)CC2)c2c(=O)n(-c3ccccc3)c(=O)n(CC(O)CN3CCN(c4ncccn4)CC3)c2n1 (stereo unspecified) | > 100 µM | > 100 µM | > 100 µM | > 100 µM | > 100 µM | > 100 µM | > 100 µM | > 100 µM | > 100 µM | > 100 µM | – | – | > 100 µM | > 100 µM | > 100 µM | > 100 µM
Cc1cc(Br)c2nsnc2c1[N+](=O)[O-] | 7.24 µM | 22.1 µM | 1.69 µM | 3.08 µM | 0.391 µM | 3.02 µM | 5.06 µM | 15 µM | 5.01 µM | 15.6 µM | 3.95 µM | 12 µM | 1.66 µM | 3.09 µM | 2.05 µM | 8.23 µM
COc1ccc(Oc2nc(Nc3ccc(N4CCOCC4)cc3)ncc2NC(=O)Nc2cc(OC)cc(OC)c2)cc1 | 1.26 µM | 5.1 µM | 1.41 µM | 5.46 µM | 4.97 µM | > 33.3 µM | 4.75 µM | 15 µM | 0.992 µM | 3.33 µM | 1.59 µM | 7.98 µM | 1.66 µM | 7.59 µM | 5.33 µM | 24.8 µM
